Test results taken from patent US20150080580A1, “THIOUREA DERIVATIVES AS a-CHYMOTRYPSIN INHIBITORS” (priority 2013, published 2015).

What was measured:
[1] = target: T1, α-Chymotrypsin (Bos taurus, UniProt P00766); assay: α-Chymotrypsin inhibition assay (SPpNA substrate, absorbance at 410 nm); type: biochemical, bovine; conditions: for IC50: α-chymotrypsin, substrate SPpNA 0.4 mM, pH 7.6, 30° C., n = 3
T1 construct: purchased Sigma-Aldrich (USA) C4129; host or cells: bovine pancreas
Experimental: (§1) α-Chymotrypsin (bovine pancreas, C4129) and N-succinyl-L-phenylalanine-p-nitroaniline (S2628) were purchased from Sigma-Aldrich (USA). Chymostatin (152845) from MP Biomedicals, LLC, USA, Tris(hydroxymethyl)aminomethane from Scharlau Chemie Barcelona, Spain and all other reagents were obtained from E. Merck and were of analytical grade. All other solvents and reagents were of analytical grade and used directly without purification.
This was performed in 50 mM Tris-HCl buffer pH 7.6 with 10 mM CaCl2. α-Chymotrypsin (12 units/mL prepared in 50 mM Tris-HCl buffer) with the different concentration of test compounds prepared in DMSO. It was then incubated at 30° C. for 25 min. The reaction was started by the addition of the substrate, N-succinyl-L-phenylalanine-p-nitroanilide (final concentration of 0.4 mM, prepared in the buffer as mentioned above). The change in absorbance due to released p-nitroaniline was continuously monitored at 410 nm (Choudhary et al., 2011). All the experiments were in a final volume of 200 μL in triplicate, and data was taken using a micro-plate reader (SpectraMax M2, Molecular Devices, Calif., USA).
The results were processed by using SoftMax Pro 4.8 then analyzed by MS Excel software. The % of inhibition based upon initial velocity and calculated as: […]
IC50 (Inhibition of enzymatic hydrolysis of the substrate SPpNA by 50%) value was calculated using EZ-Fit software (Perellela Scientific, Inc., Amherst, Mars, USA).

[2] = target: T1, α-Chymotrypsin; assay: α-Chymotrypsin inhibition kinetic study (Lineweaver-Burk, Dixon, Hanes-Woolf plots); type: biochemical, bovine; conditions: for Type of inhibition: from Lineweaver-Burk, Dixon and Hanes-Woolf plots; for Ki: substrate SPpNA 0.4-3.2 mM, n = 3, read-out: Ki ± SEM
From the text: as §1
The change in concentration of the substrate/product (rate of reaction) was measured as optical density per minute (OD/min). This OD/min was obtained by incorporating different concentrations of compounds over substrate (SPpNA) concentrations between 0.4 mM and 3.2 mM in micro-plate reader. Reciprocal of OD/min against the reciprocal of the substrate concentration, defined as Lineweaver-Burk plot (and its secondary plot; slope vs compound concentration); the Dixon plot (and its secondary plot; slope vs reciprocal of compound concentration) and then Hanes-Woolf plot were plotted (Lineweaver et al., 1934; Dixon, 1953; Segel, 1993) Graphs were plotted using GraFit 4 (Erithacus Software Limited, Surrey, UK) and GraphPad Prism 5 (GraphPad Software, California, USA). The types of inhibition were determined by the graphical views of Dixon plots, Lineweaver-Burk plots and their secondary plots as well as Hanes-Woolf plot. The Ki values, obtained directly from the software, also were cross-checked and tallied in these graphs. Final concentration of DMSO was maintained 5.5%.

[3] = Cell proliferation inhibition (cytotoxicity) MTT assay for 3T3 cell line; type: cell-based, Mouse; conditions: 3T3 mouse fibroblast cells; 3T3 mouse fibroblasts, MTT, 72 hrs, n = 3; read-out: 3T3 cell-line GI50 ± SEM
Experimental: (§2) It was evaluated by using the MTT (3-[4,5-dimethylthiazole-2-yl]-2,5-diphenyl-tetrazolium bromide) assay (Mosmann, 1983). The 3T3 cell-lines (Mouse Fibroblasts) were cultured in Dulbecco's Modified Eagle's Medium, which was later supplemented with 5% of bovine serum, 100 IU/mL of penicillin, and 100 μg/mL of streptomycin, in 5% CO2 incubator at 37° C. Exponentially growing cell, 1×10^4 cells/well incorporated into each well of 96-well plates. Then, fresh the medium containing different concentrations of compounds were loaded in each well after 24 hours. Again, after 72 hrs, fresh the medium containing 0.5 mg/mL MTT were loaded in each well, and incubated further for 4 hrs. Subsequently, the media containing MTT was replaced by 100 μL of DMSO for 15 min, and then the absorbance was taken at 570 nm.

[4] = tested on: 3T3 cell line; assay: as above; type: cell-based, Mouse
Experimental: as §2

SMILES	IC50 [1]	Type of inhibition [2]	Ki [2]	GI50 at 72 h [3]	growth inhibition for 3T3 cell lines (in words) [4]	α-chymotrypsin inhibition (in words) [1]
S=C(Nc1ccc(Cl)cc1)Nc1cccc(Cl)c1 [Compound 1, 1-(3-Chlorophenyl)-3-(4-chlorophenyl) thiourea]	11.6 µM	mixed-type	8.6 ± 0.8 µM	> 30 µM		
S=C(Nc1cccc(Cl)c1)Nc1ccc(Cl)c(Cl)c1 [Compound 2, 1-(3-Chlorophenyl)-3-(3,4-dichlorophenyl) thiourea]	18.8 ± 0.2 µM	non-competitive-type	15.5 ± 0.4 µM	> 30 µM		
S=C(Nc1cccc(Cl)c1)Nc1cccc(Cl)c1 [Compound 3, 1,3-Bis(3-chlorophenyl) thiourea]	23.3 µM	Mixed	15.9 ± 1.5 µM	> 30 µM		
COc1cccc(NC(=S)Nc2cccc(Cl)c2)c1 [Compound 4, 1-(3-Chlorophenyl)-3-(3-methoxyphenyl) thiourea]	25.4 ± 0.2 µM	Mixed	21.2 ± 1.5 µM	> 30 µM		
COc1ccccc1NC(=S)Nc1cccc(Cl)c1 [Compound 5, 1-(3-Chlorophenyl)-3-(2-methoxyphenyl) thiourea]	26.3 ± 4.9 µM	Non- Competitive	25.3 ± 4.6 µM	10.7 ± 1.2 µM	showed growth inhibition	
COc1ccc(NC(=S)Nc2cccc(Cl)c2)cc1 [Compound 6, 1-(3-Chlorophenyl)-3-(4-methoxyphenyl) thiourea]	34.3 ± 2.8 µM	Mixed	25.6 ± 0.9 µM	> 30 µM		
Cc1ccc(Cl)cc1NC(=S)Nc1cccc(Cl)c1 [Compound 7, 1-(5-Chloro-2-methylphenyl)-3-(3-chlorophenyl) thiourea]	40.4 ± 1.2 µM	Competitive	25.8 ± 0.9 µM	24.6 ± 0.2 µM	showed growth inhibition	
Cc1cccc(NC(=S)Nc2cccc(Cl)c2)c1 [Compound 10, 1-(3-Chlorophenyl)-3-m-tolylthiourea]	48.5 ± 1.7 µM	Mixed	31.6 ± 1.8 µM	> 30 µM		
Fc1ccc(NC(=S)Nc2cccc(Cl)c2)cc1F [Compound 11, 1-(3-Chlorophenyl)-3-(3,4-difluorophenyl) thiourea]	66.9 ± 4.9 µM	Competitive	49.8 ± 2.6 µM	> 30 µM		
Fc1ccc(NC(=S)Nc2cccc(Cl)c2)cc1 [Compound 12, 1-(3-Chlorophenyl)-3-(4-fluorophenyl) thiourea]	68.4 ± 8.5 µM	Competitive	62.5 ± 2.5 µM	> 30 µM		
S=C(Nc1cccc(Cl)c1)Nc1cccc(Cl)c1Cl [Compound 13, 1-(3-chlorophenyl)-3-(2,3-dichlorophenyl) thiourea]	107 ± 9.1 µM	Competitive	87.3 ± 6.7 µM	> 30 µM		
Cc1ccc(C)c(NC(=S)Nc2cccc(Cl)c2)c1 [Compound 14, 1-(3-Chlorophenyl)-3-(2,5-dimethylphenyl) thiourea]	151 ± 8.8 µM	Competitive	107 ± 5.5 µM	> 30 µM		
Cc1ccc(NC(=S)Nc2cccc(Cl)c2)c(C)c1 [Compound 15, 1-(3-Chlorophenyl)-3-(2,4-dimethylphenyl) thiourea]	192 ± 9.2 µM	Non- Competitive	173 ± 7.9 µM	> 30 µM		
S=C(Nc1cccc(Cl)c1)Nc1c(Cl)cccc1Cl [Compound 16, 1-(3-Chlorophenyl)-3-(2,6-dichlorophenyl) thiourea]	247.3 ± 1.7 µM	Competitive	210 ± 11.8 µM	> 30 µM		
Cc1ccccc1NC(=S)Nc1cccc(Cl)c1 [Compound 17, 1-(3-Chlorophenyl)-3-o-tolylthiourea]	387 ± 13.1 µM	Competitive	329 ± 11.6 µM	> 30 µM		
S=C(NCc1ccncc1)Nc1cccc(Cl)c1 [Compound 18, 1-(3-Chlorophenyl)-3-(pyridin-4-ylmethyl)thiourea]	186 ± 12.8 µM	Competitive	148 ± 4.8 µM	> 30 µM		
S=C(Nc1cccnc1)Nc1cccc(Cl)c1 [Compound 19, 1-(3-Chlorophenyl)-3-(pyridin-3-yl) thiourea]	199 µM	Competitive	166 ± 5.9 µM	> 30 µM		

SMILES	IC50 [1]	Type of inhibition [2]	Ki [2]	GI50 at 72 h [3]	growth inhibition for 3T3 cell lines (in words) [4]	α-chymotrypsin inhibition (in words) [1]
S=C(Nc1ccccc1)Nc1ccc(Br)cc1 [Compound 20, 1-(4-Bromophenyl)-3-phenylthiourea]	45.7 ± 2.9 µM	competitive-type	21.1 ± 2.5 µM	> 30 µM		
S=C(Nc1ccccc1)Nc1cccc(Br)c1 [Compound 21, 1-(3-Bromophenyl)-3-phenylthiourea]	79.2 ± 0.6 µM	Mixed	60.8 ± 7.4 µM	> 30 µM		
Fc1ccc(NC(=S)Nc2ccccc2)c(F)c1 [Compound 22, 1-(2,4-Difluorophenyl)-3-phenylthiourea]	193 ± 1 µM	Competitive	142 ± 5 µM	> 30 µM		
S=C(Nc1cccc(Cl)c1)Nc1ccccc1Cl [Compound 23, 1-(2-Chlorophenyl)-3-(3-chlorophenyl) thiourea]	> 500 µM					failed to show any inhibition
Cc1cccc(C)c1NC(=S)Nc1cccc(Cl)c1 [Compound 24, 1-(3-Chlorophenyl)-3-(2,6-dimethylphenyl) thiourea]	> 500 µM					
Cc1cccnc1NC(=S)Nc1cccc(Cl)c1 [Compound 25, 1-(3-Chlorophenyl)-3-(3-methylpyridin-2-yl)thiourea]	> 500 µM					
S=C(Nc1cccc(Cl)c1)Nc1cccnc1Cl [Compound 26, 1-(3-Chlorophenyl)-3-(2-chloropyridin-3-yl)thiourea]	> 500 µM					
COc1ccc(OC)c(NC(=S)Nc2ccccc2)c1 [Compound 27, 1-(2,5-Dimethoxyphenyl)-3-phenylthiourea]	> 500 µM					
S=C(Nc1ccccc1)Nc1ccccn1 [Compound 28, 1-Phenyl-3-(pyridin-2-yl) thiourea]	> 500 µM					
S=C(Nc1ccccc1)Nc1cccnc1 [Compound 29, 1-Phenyl-3-(pyridin-3-yl) thiourea]	> 500 µM					inactive
S=C(Nc1ccccc1)Nc1ccncc1 [Compound 30, 1-Phenyl-3-(pyridin-4-yl) thiourea]	> 500 µM					
Cc1cccnc1NC(=S)Nc1ccccc1 [Compound 31, 1-(3-Methylpyridin-2-yl)-3-phenylthiourea]	> 500 µM					
Cc1ccc(NC(=S)Nc2ccccc2)nc1C [Compound 32, 1-(5,6-Dimethylpyridin-2-yl)-3-phenylthiourea]	> 500 µM					
S=C(Nc1ccccc1)Nc1cccnc1Cl [Compound 33, 1-(2-Chloropyridin-3-yl)-3-phenylthiourea]	> 500 µM					
S=C(NCc1cccnc1)Nc1ccccc1 [Compound 34, 1-Phenyl-3-(pyridin-3-ylmethyl)thiourea]	> 500 µM					
S=C(NCc1ccncc1)Nc1ccccc1 [Compound 35, 1-Phenyl-3-(pyridin-4-ylmethyl)thiourea]	> 500 µM					
